Laboratory results as given in US20240285670A1, “THERAPEUTIC TREATMENT OF TUMORS BY BLOCKING THE HEME SYNTHESIS-EXPORT AXIS” (Università degli Studi di Torino, priority 2021, published 2024).

Test system: SH-SY5Y cells
Assay: Activity of mitochondrial ETC complexes I-IV in SHSY-5Y cells
Type: cell-based, human
Conditions: FLVCR1a-silenced vs scramble shRNA SH-SY5Y cells
Excerpt: Results were expressed as nmol NAD*/min/mg mitochondrial protein for complex I, nmol reduced cytochrome c/min/mg mitochondrial protein for complexes II-III, nmol oxidized cytochrome c/min/mg mitochondrial protein for complex IV. Data represent mean±SEM, n=3. For statistical analyses, an unpaired Student's t-test was used; *=p<0.05, **=p<0.01, *=p<0.001. […] Results are expressed as nmol/mg mitochondrial proteins. Data represent mean±SEM, n=3. For statistical analyses, an unpaired Student's t-test was used; *=p<0.05. […] Results are expressed as pmol CO2/h/mg protein. Data represent mean±SEM, n=3. For statistical analyses, an unpaired Student's t-test was used; **=p<0.01. […] Results were expressed as nmol NAD*/min/mg mitochondrial protein for complex I, nmol reduced cytochrome c/min/mg mitochondrial protein for complexes II-III, nmol oxidized cytochrome c/min/mg mitochondrial protein for complex IV. […] Results are expressed as nmol/mg mitochondrial proteins. […] Results are expressed as pmol CO2/h/mg protein. […] (H) TCA cycle enzymes activities are reported in boxes and expressed as mU/mg mitochondrial proteins. […] Results were expressed as nmol NAD^+/min/mg mitochondrial protein for complex I, nmol reduced cytochrome c/min/mg mitochondrial protein for complexes II-III, nmol oxidized cytochrome c/min/mg mitochondrial protein for complex IV. […] Results are expressed as nmol/mg mitochondrial proteins. […]

Q: With “FLVCR1a shRNA: shRNA specifically down-regulating FLVCR1a without targeting FLVCR1b; pLKO.1 lentiviral clone TRCN0000059599, antisense SEQ ID No.: 2 (antisense TTGCTAATGATGCTGTACTGG; sense CCAGTACAGCATCATTAGCAA)” as the substance, how does the “activity of ETC complexes” value read?
A: enhanced activity of ETC complexes
